Test results as given in the NIST ThermoML archive (doi:10.1007/s10765-010-0862-1).
Numbers after ± are expanded uncertainties.

How the values were obtained:
[1] = 101.3 kPa, Liquid
[2] = mn = molality of the nth substance listed, in mol/kg; settings: 101.3 kPa, Liquid

O [water]
[1]
Settings	speed of sound [m/s]
313.15 K	1528 ± 3.1
318.15 K	1535.2 ± 3.2

NCCCC(=O)O [4-aminobutanoic acid] + O
[2]
Settings	mass density, m1 = 0.02 [kg/m3]	mass density, m1 = 0.04 [kg/m3]	mass density, m1 = 0.06 [kg/m3]	mass density, m1 = 0.08 [kg/m3]	mass density, m1 = 0.1 [kg/m3]	speed of sound, m1 = 0.02 [m/s]	speed of sound, m1 = 0.04 [m/s]	speed of sound, m1 = 0.06 [m/s]	speed of sound, m1 = 0.08 [m/s]	speed of sound, m1 = 0.1 [m/s]
308.15 K	994.6 ± 1.2	995.2 ± 1.2	995.8 ± 1.2	996.4 ± 1.2	997 ± 1.2	1521.8 ± 3.1	1523 ± 3.1	1524.3 ± 3.1	1525.6 ± 3.1	1527 ± 3.1
313.15 K	992.8 ± 1.2	993.4 ± 1.2	994 ± 1.2	994.6 ± 1.2	995.2 ± 1.2	1529.4 ± 3.1	1530.7 ± 3.1	1532 ± 3.2	1533.3 ± 3.2	1534.6 ± 3.2
318.15 K	990.8 ± 1.2	991.4 ± 1.2	992 ± 1.2	992.6 ± 1.2	993.2 ± 1.2	1536.5 ± 3.2	1537.7 ± 3.2	1538.9 ± 3.2	1540.1 ± 3.2	1541.3 ± 3.2

CN(C)C(=N)NC(=N)N.Cl [N,N-dimethylimidodicarbonimidic diamide hydrochloride] + O
[2]
Settings	mass density, 308.15 K [kg/m3]	mass density, 313.15 K [kg/m3]	mass density, 318.15 K [kg/m3]	speed of sound, 308.15 K [m/s]	speed of sound, 313.15 K [m/s]	speed of sound, 318.15 K [m/s]
m1 = 0.05	997.5 ± 1.1	996 ± 1.2	994.3 ± 1.3	1527.4 ± 3.1	1534.4 ± 3.2	1539.2 ± 3.2
m1 = 0.1	999.1 ± 1.2	997.2 ± 1.2	995.5 ± 1.2	1529 ± 3.1	1537.8 ± 3.2	1541 ± 3.2
m1 = 0.15	1000.2 ± 1.1	998.8 ± 1.2	997.2 ± 1.2	1530 ± 3.1	1541.2 ± 3.2	1543.8 ± 3.2
